Assay results published in patent publication US20060286139A1, “Polymeric drug release system for medical devices” (priority 2003, published 2006).

Assay: Drug elution from dual-coated stents (17β-estradiol in PEP94 bottom layer, dexamethasone in PEP90 top layer) into aqueous release medium, HPLC analysis
Type: physicochemical
Settings: for Percentage Released: bottom layer PEP94, aqueous release medium 37° C.; for Total Microgrammes Released: bottom layer PEP94, loading approx 147 μg, aqueous release medium 37° C.
Protocol: This example describes the preparation and elution of stents comprising 17β-estradiol and dexamethasone each contained within a specific ratio of PVB/PnVPA
A coating solution was prepared made up of PEP94 and 17β-estradiol in a blend of chloroform and acetone (80:20 by weight), so that in terms of total solids 25% was 17β-estradiol, 75% polymer.
A second coating solution was prepared made of PEP 90 and dexamethasone in a mixture of chloroform and acetone (80:20 by weight), so that in terms of total solids 25% was dexamethasone, 75% polymer.
The stents were weighed, spray coated in a ratio of 3:1 (estradiol: dexamethasone) with the respective formulations such that the bottom layer comprised PEP94 with 17β-estradiol and the top layer PEP90 with dexamethasone. The stents were then dried overnight at 40° C. under vacuum.
Upon weighing the average coating weight of the stents was 811 μg yielding drug loadings of approx 147 μg±17 μg for 17β-estradiol and 57 μg±16 μg for dexamethasone.
Each stent was placed on a hook and suspended in a vial containing 8 ml of an aqueous release medium with a 5 mm magnetic flea. The vials were placed on a multipoint stirrer set at 1000 rpm and incubated at 37° C. After a given time interval (ranging from 1 hour to several days), the stents were transferred to fresh aliquots of release medium and replaced on the stirrer to resume agitation. The solution containing dexamethasone/17β-estradiol was set aside for analysis.
Analysis of the samples was carried out using HPLC (Agilent 1100 series).

Structure (SMILES): C[C@]12CC[C@@H]3c4ccc(O)cc4CC[C@H]3[C@@H]1CC[C@@H]2O [17β-estradiol]
- Percentage Released (time 1 hour): 5.1%
- Percentage Released (time 7 hours): 10.5%
- Percentage Released (time 24 hours): 17.1%
- Total Microgrammes Released (time 1 hour): 7.5 µg
- Total Microgrammes Released (time 7 hours): 15.5 µg
- Total Microgrammes Released (time 24 hours): 25.1 µg
